Laboratory results from patent US9133155B2, “Antibacterial agents: high-potency myxopyronin derivatives” (Rutgers, The State University of New Jersey, priority 2010, dated 2015).
Converted amounts (≈) assume the structure as drawn. Where two headings read alike, the source gives them in different places.

Columns and labels:
[1] = Tolerability upon intravenous injection (peritonitis model study); format: in vivo, Swiss Webster mice; conditions: daily total doses of at least 30 mg/kg; vehicles containing 9% to 19% dimethylacetamide and 8% to 16% Cremophor EL
Protocol: (§1) Female Swiss Webster mice were experimentally infected by intraperitoneal administration of 5×10^7 colony forming units of Staphylococcus aureus in 10% hog gastric mucin. Test compounds (2-3 mg/ml in vehicle [9-19% dimethyacetamide/8-16% Cremophor EL in water, v/v]), positive controls (2 mg/ml vancomycin in vehicle), and negative controls (vehicle only and saline only), were administered by intravenous injection into a tail vein 1 h and 5 h post-infection (200 μl per injection). Survival was monitored for 12 h post-infection, or for 24, 48, and 72 h post-infection. At the end of the monitoring period, surviving animals were euthanized.

[2] = system: Staphylococcus aureus ATCC 12600; assay: Inhibition of bacterial growth in culture (MIC, spiral gradient endpoint); format: cell-based; conditions: for MIC: Staphylococcus aureus, ATCC12600, Mueller-Hinton II agar, 16 h at 37° C., read-out: MIC S. aureus 12600
Text: (§2) Minimum inhibitory concentrations (MICs) for Staphylococcus aureus ATCC 12600, Enterococcus faecalis ATCC 19433, Acinetobacter baumannii ATCC 19606, and Escherichia coli D21f2tolC were quantified using spiral gradient endpoint assays, essentially as described [Wallace, A. and Corkill, J. (1989) Application of the spiral plating method to study antimicrobial action. J. Microbiol. Meths. […] Int. J. Exp. Clin. Chemother. 3, 31-38; Schalkowsky S. (1994) Measures of susceptibility from a spiral gradient of drug concentrations. Adv. Exp. Med. Biol. 349, 107-120]. Assays employed exponential-gradient plates containing 150 mm×4 mm Mueller-Hinton II cation-adjusted agar and 0.4-100 μg/ml of test compound. Plates were prepared using an Autoplate 4000 spiral plater (Spiral Biotech, Inc.). Saturated overnight cultures were swabbed radially onto plates, and plates were incubated for 16 h at 37° C. For each culture, the streak length was measured using a clear plastic template (Spiral Biotech, Inc.), the test-compound concentration at the streak endpoint was calculated using the program SGE (Spiral Biotech, Inc.), and the MIC was defined as the calculated test-compound concentration at the streak endpoint.

[3] = system: Enterococcus faecalis ATCC 19433; assay: as above; format: cell-based; conditions: for MIC: Enterococcus faecalis, ATCC19433, Mueller-Hinton II agar, 16 h at 37° C., read-out: MIC E. faecalis 19433
Text: as §2

[4] = system: Acinetobacter baumannii ATCC 19606; assay: as above; format: cell-based; conditions: for MIC: Acinetobacter baumannii, ATCC19606, Mueller-Hinton II agar, 16 h at 37° C.
Text: as §2

[5] = system: Escherichia coli D21f2tolC; assay: as above; format: cell-based; conditions: 16 h, read-out: MIC E. coli D21f2tolC
Text: as §2

[6] = molecular target: S. aureus RNA polymerase (Staphylococcus aureus, UniProt P47768+Q2G0N5); assay: Inhibition of Staphylococcus aureus RNA polymerase (fluorescence-detected); format: biochemical
[7] = molecular target: E. coli RNA polymerase σ^70 holoenzyme (Escherichia coli, UniProt P0A8T7+P0A8V2); assay: Inhibition of Escherichia coli RNA polymerase (fluorescence-detected); format: biochemical; conditions: read-out: IC50 E. coli RNAP
Protocol: (§3) Fluorescence-detected RNA polymerase assays with E. coli RNA polymerase were performed by a modification of the procedure of Kuhlman et al., 2004 [Kuhlman, P., Duff, H. & Galant, A. (2004) A fluorescence-based assay for multisubunit DNA-dependent RNA polymerases. Anal. Biochem. 324, 183-190]. Reaction mixtures contained (20 μl): 0-100 nM test compound, 75 nM E. coli RNA polymerase σ^70 holoenzyme, 20 nM 384 bp DNA fragment containing the bacteriophage T4 N25 promoter, 100 μM ATP, 100 μM GTP, 100 μM UTP, 100 μM CTP, 50 mM Tris-HCl, pH 8.0, 100 mM KCl, 10 mM MgCl2, 1 mM DTT, 10 μg/ml bovine serum albumin, and 5.5% glycerol. Reaction components other than DNA and NTPs were pre-incubated for 10 min at 37° C. Reactions were carried out by addition of DNA and incubation for 5 min at 37° C., followed by addition of NTPs and incubation for 60 min at 37° C. DNA was removed by addition of 1 μl 5 mM CaCl2 and 2 U DNaseI (Ambion, Inc.), followed by incubation for 90 min at 37° C. RNA was quantified by addition of 100 μl RiboGreen RNA Quantitation Reagent (Invitrogen, Inc.; 1:500 dilution in Tris-HCl, pH 8.0, 1 mM EDTA), followed by incubation for 10 min at 25° C., followed by measurement of fluorescence intensity [excitation wavelength=485 nm and emission wavelength=535 nm; QuantaMaster QM1 spectrofluorometer (PTI, Inc.)].

[8] = system: Staphylococcus aureus; assay: Antibacterial efficacy in mouse model of Staphylococcus aureus systemic infection (peritonitis model); format: in vivo, Swiss Webster mice; conditions: for effect on survival in a mouse model of Staphylococcus aureus infection (in words): summary of Tables 4a-4c
Protocol: as §1

[9] = molecular target: M. tuberculosis RNA polymerase (Mycobacterium tuberculosis, UniProt P9WGY7+P9WGY9); assay: Inhibition of Mycobacterium tuberculosis RNA polymerase (fluorescence-detected); format: biochemical
Sequence of M. tuberculosis RNA polymerase (P9WGY5 whole entry): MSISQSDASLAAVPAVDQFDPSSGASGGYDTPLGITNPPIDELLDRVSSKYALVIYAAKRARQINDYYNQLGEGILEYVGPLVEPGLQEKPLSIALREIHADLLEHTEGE
Sequence of M. tuberculosis RNA polymerase (P9WGZ1 whole entry, further chain): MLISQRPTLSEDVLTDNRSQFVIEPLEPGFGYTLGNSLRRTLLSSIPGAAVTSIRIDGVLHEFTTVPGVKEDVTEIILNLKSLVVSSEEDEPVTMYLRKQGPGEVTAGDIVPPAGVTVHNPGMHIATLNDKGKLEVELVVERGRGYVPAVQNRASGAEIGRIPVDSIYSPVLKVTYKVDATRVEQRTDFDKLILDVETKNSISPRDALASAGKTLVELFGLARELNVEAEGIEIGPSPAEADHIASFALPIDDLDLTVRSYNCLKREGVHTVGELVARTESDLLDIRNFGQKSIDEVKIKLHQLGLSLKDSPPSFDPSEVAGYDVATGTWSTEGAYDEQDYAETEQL
Sequence of M. tuberculosis RNA polymerase (P9WGY9 whole entry): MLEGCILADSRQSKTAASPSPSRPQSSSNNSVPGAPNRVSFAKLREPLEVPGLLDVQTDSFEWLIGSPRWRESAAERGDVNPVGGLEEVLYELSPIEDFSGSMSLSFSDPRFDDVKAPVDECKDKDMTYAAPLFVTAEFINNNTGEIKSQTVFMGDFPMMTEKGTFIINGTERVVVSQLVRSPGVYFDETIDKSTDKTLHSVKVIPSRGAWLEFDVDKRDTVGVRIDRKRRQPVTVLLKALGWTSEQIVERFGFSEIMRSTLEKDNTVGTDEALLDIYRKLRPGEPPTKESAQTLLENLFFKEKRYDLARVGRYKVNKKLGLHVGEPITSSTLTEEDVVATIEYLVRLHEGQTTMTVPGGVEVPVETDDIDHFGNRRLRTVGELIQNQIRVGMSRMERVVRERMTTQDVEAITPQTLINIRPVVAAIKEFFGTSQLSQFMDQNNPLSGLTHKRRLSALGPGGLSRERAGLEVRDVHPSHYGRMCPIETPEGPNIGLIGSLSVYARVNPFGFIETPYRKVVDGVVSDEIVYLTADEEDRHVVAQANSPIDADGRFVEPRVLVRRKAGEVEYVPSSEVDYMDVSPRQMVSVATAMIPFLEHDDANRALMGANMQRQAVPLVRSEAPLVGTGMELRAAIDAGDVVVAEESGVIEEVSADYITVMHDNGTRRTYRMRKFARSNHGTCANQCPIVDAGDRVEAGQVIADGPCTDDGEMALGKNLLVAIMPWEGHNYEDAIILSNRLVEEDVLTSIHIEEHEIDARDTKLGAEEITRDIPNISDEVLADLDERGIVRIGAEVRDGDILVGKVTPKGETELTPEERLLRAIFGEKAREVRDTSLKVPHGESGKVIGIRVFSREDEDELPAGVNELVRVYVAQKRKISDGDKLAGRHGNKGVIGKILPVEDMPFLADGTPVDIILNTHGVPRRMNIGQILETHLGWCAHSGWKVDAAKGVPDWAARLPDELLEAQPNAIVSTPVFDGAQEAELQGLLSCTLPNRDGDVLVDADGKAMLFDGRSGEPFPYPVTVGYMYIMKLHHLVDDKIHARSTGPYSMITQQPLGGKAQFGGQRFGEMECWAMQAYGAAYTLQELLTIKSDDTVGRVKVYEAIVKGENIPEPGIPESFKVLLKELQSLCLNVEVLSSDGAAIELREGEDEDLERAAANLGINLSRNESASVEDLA
Sequence of M. tuberculosis RNA polymerase (P9WGY7 whole entry): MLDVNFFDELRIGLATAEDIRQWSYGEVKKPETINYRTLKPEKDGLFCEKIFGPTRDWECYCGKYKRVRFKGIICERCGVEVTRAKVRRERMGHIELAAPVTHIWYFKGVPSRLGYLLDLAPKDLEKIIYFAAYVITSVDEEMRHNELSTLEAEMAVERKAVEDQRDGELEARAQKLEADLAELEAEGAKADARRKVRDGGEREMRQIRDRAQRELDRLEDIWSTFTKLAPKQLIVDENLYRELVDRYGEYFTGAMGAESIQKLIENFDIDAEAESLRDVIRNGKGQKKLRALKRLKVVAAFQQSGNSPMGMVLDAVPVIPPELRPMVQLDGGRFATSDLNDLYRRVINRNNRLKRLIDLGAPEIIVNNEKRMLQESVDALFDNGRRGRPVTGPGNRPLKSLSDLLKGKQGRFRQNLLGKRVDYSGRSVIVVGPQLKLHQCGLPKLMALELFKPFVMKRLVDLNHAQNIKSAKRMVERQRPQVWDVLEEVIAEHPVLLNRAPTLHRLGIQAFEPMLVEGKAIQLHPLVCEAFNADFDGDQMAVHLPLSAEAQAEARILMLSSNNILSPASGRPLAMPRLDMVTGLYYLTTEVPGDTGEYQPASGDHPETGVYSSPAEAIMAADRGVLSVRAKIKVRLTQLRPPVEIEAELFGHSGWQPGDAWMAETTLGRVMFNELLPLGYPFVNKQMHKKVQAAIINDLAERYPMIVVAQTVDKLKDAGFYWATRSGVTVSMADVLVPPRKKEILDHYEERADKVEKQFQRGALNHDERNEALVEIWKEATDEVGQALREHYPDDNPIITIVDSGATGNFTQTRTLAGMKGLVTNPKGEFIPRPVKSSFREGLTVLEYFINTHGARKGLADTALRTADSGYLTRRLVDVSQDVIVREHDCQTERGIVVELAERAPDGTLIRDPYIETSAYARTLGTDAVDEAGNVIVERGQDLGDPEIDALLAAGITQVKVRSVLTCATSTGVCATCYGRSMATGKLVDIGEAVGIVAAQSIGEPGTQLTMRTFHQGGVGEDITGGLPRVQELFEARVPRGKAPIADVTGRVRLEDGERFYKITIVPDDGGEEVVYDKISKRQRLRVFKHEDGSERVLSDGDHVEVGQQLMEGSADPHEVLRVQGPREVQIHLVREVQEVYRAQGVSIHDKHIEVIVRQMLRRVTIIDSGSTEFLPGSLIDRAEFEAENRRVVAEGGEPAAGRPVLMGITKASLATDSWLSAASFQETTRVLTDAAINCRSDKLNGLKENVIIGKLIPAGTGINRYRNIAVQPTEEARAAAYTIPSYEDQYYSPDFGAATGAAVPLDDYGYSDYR
Sequence of M. tuberculosis RNA polymerase (P9WGI1 whole entry, further chain): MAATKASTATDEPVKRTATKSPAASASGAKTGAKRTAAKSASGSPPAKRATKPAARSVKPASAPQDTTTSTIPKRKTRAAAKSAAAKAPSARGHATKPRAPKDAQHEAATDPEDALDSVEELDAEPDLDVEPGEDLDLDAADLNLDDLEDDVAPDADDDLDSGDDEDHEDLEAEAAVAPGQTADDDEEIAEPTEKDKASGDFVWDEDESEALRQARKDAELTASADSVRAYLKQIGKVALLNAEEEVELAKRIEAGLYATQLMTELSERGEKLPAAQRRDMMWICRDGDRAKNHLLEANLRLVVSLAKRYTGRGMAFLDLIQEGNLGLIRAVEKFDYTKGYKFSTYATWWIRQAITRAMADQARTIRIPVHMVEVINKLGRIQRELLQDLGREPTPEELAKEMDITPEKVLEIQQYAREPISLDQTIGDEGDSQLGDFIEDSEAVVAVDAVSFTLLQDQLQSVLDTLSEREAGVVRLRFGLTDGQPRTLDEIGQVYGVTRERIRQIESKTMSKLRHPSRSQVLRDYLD
Protocol: as §3
Fluorescence-detected RNA polymerase assays with M. tuberculosis RNA polymerase were performed as in Example 17.1, using reaction mixtures containing (20 μl): 0-100 nM test compound, 75 nM M. tuberculosis RNA polymerase core enzyme, 300 nM M. tuberculosis σ^A, 20 nM 384 bp DNA fragment containing the bacteriophage […] N25 promoter, 100 μM ATP, 100 μM GTP, 100 μM UTP, 100 μM CTP, 40 mM Tris-HCl, pH 8.0, 80 mM NaCl, 5 mM MgCl2, 2.5 mM DTT, and 12.7% glycerol.

[10] = Table 4c, total dose 50 mg/kg iv, vehicle 9% dimethylacetamide/8% Cremophor EL/83% water

SMILES | acute toxicity upon intravenous injection [1] | MIC [2] [µg/mL] | MIC [3] [µg/mL] | MIC [4] [µg/mL] | inhibition of Acinetobacter baumannii (in words) ([4]; summary of Table 3) | MIC [5] [µg/mL] | IC50 [6] [nM] | IC50 [7] [nM] | 12-hour survival ([8]; Table 4b, total dose 50 mg/kg iv, vehicle 19% dimethylacetamide/16% Cremophor EL/73% water) [%] | 24-hour survival [8, 10] [%] | 48-hour survival [8, 10] [%] | 72-hour survival [8, 10] [%] | effect on survival in a mouse model of Staphylococcus aureus infection (in words) [8] | IC50 [9] [nM] | inhibition of Staphylococcus aureus compared with Myx B and 7-desmethyl-Myx B ([2]; summary of Table 3) | inhibition of Enterococcus faecalis compared with Myx B and 7-desmethyl-Myx B ([3]; summary of Table 3) | IC50 ([6]; read-out: IC50 S. aureus RNAP) [nM] | 12-hour survival ([8]; Table 4a, total dose 30 mg/kg iv, 1 h and 5 h post-infection, vehicle 19% dimethylacetamide/8% Cremophor EL/73% water) [%] | IC50 ([9]; read-out: IC50 M. tuberculosis RNAP) [nM]
CCCC/C(C)=C/C=C(\C)C(=O)c1c(O)cc(C(C)CC/C=C/NC(=O)OC)oc1=O (centres unmarked) [Myx B, Methyl ((E)-5-(3-((2E,4E)-2,5-dimethylnona-2,4-dienoyl)-4-hydroxy-2-oxo-2H-pyran-6-yl)hex-1-en-1-yl)carbamate, reference compound] | tolerated without acute toxicity | 0.78 (≈ 1.81 µM) | 13 (≈ 30.1 µM) | > 40 | not detectably inhibited | 0.098 (≈ 0.227 µM) | 66 | 13 | 50 | 75 | 50 | 50 | increase survival | 130 |  |  |  |  | 
CCCCC/C(C)=C/C=C(\C)C(=O)c1c(O)cc(CCC/C=C/NC(=O)OC)oc1=O [compound 5, Methyl ((E)-5-(3-((2E,4E)-2,5-dimethyldeca-2,4-dienoyl)-4-hydroxy-2-oxo-2H-pyran-6-yl)pent-1-en-1-yl)carbamate] | tolerated without acute toxicity | 0.44 (≈ 1.02 µM) | 12 (≈ 27.8 µM) | 19 (≈ 44 µM) |  | 0.076 (≈ 0.176 µM) |  | 3.9 |  |  |  |  | increase survival |  | more potently than Myx B and 7-desmethyl-Myx B | more potently than Myx B and 7-desmethyl-Myx B | 15 | 100 | 32
